The conditions of series [1]: after both IV and oral administration; cited from earlier work.
The target of series [2] is T1, 5‐HT3 receptor (Homo sapiens, UniProt P46098).
T1 sequence (P46098 24-478): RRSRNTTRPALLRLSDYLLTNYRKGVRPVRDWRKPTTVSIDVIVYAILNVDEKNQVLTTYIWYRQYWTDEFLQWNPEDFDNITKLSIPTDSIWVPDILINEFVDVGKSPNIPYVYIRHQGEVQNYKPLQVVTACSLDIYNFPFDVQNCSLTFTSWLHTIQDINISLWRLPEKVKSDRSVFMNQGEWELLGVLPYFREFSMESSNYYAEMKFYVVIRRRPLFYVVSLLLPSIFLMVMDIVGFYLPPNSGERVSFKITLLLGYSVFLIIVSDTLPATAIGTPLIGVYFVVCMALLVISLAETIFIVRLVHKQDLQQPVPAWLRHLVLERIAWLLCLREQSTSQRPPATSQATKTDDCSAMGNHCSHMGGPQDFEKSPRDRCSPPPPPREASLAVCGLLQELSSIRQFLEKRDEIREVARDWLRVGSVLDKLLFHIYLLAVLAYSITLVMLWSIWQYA
The following applies: Helsinn, data on file.

Series [3] can be described thus: Study 4 pilot bioequivalence study, PK after single oral NEPA. The following applies: human, plasma. Format: in vivo.
The nature of series [4]: Study 5 bioequivalence study, PK after single oral NEPA. Format: in vivo, human.
Series [5] is described as follows: Study 9 replicate crossover bioequivalence study. It is filed as in vivo, human.
The nature of series [6]: Study 11 population PK/pharmacodynamic study in cancer patients. Format: in vivo, human. The following applies: population PK modeling in patients.
A short description of series [7]: Study 12 PK/safety and DDI study in cancer patients. Format: in vivo. Particulars: human, plasma, oral.
A short description of series [8]: Oral NEPA PK in cancer patients, summary across studies. It is filed as in vivo. The following applies: human, plasma.
Series [9] in a line: Apical-to-basolateral permeability in MDCK II monolayer. It is filed as in vitro ADME, canine. Particulars: dog.
Series [10] in a line: Biopharmaceutics Classification System class and solubility in water. Format: physicochemical.
Series [11] can be described thus: Binding to plasma proteins. Format: in vitro ADME. Particulars: human, plasma.
The subject of series [12] is plasma proteins. Briefly: Binding to plasma proteins. Format: in vitro ADME.
A short description of series [13]: Absolute / oral bioavailability. It is filed as in vivo. Particulars: human, plasma, po.
On the set-up of series [14]: species or system human. The following applies: estimated from t1/2.
The conditions of series [15]: cited from earlier work; for AUCinf / CL/F / Cmax / Tmax / Vz/F / t1/2: Study 8, healthy volunteers (22), NEPA FDC, mean (CV%).
For series [16] the following is noted: Study 11 population PK, patients (117), NEPA FDC, cited from earlier work.
For series [17] the following is noted: absorption, binding, metabolic, or excretory level; cited from earlier work.
The conditions of series [18]: palonosetron; cited from earlier work.
The conditions of series [19]: calculated logP; cited from earlier work.
The target in series [20] is P‐glycoprotein (P‐gp) efflux transporter (Homo sapiens, UniProt P08183). Particulars: in vitro, cited from earlier work.
For series [21] the following is noted: cited from earlier work.
In series [22] the test system is NG108‐15 cells. Particulars: netupitant and palonosetron combined; cited from earlier work.
The target in series [23] is NK1 receptor (Homo sapiens, UniProt P25103). The following applies: NG108-15 cells; netupitant and palonosetron combined; cited from earlier work.
Series [24] deals with CYP450 isoforms. Particulars: palonosetron; cited from earlier work.
The nature of series [25]: clinical. The following applies: human, in vivo, po.
Series [26] can be described thus: clinical. Particulars: human, in vivo.
The conditions of series [27]: cited from earlier work. The source holds these as a separate data set.
The conditions of series [28]: cited from earlier work. This is another data set of the same source.

This is an account of results in article PMC6587462 (Journal of Clinical Pharmacology, 2018).

Entries after “also recorded” stand apart in the source; their conditions may differ. Like-named read-outs stand apart in the source and are kept apart here.

Sequence of P‐glycoprotein (P‐gp) efflux transporter (P08183 whole entry): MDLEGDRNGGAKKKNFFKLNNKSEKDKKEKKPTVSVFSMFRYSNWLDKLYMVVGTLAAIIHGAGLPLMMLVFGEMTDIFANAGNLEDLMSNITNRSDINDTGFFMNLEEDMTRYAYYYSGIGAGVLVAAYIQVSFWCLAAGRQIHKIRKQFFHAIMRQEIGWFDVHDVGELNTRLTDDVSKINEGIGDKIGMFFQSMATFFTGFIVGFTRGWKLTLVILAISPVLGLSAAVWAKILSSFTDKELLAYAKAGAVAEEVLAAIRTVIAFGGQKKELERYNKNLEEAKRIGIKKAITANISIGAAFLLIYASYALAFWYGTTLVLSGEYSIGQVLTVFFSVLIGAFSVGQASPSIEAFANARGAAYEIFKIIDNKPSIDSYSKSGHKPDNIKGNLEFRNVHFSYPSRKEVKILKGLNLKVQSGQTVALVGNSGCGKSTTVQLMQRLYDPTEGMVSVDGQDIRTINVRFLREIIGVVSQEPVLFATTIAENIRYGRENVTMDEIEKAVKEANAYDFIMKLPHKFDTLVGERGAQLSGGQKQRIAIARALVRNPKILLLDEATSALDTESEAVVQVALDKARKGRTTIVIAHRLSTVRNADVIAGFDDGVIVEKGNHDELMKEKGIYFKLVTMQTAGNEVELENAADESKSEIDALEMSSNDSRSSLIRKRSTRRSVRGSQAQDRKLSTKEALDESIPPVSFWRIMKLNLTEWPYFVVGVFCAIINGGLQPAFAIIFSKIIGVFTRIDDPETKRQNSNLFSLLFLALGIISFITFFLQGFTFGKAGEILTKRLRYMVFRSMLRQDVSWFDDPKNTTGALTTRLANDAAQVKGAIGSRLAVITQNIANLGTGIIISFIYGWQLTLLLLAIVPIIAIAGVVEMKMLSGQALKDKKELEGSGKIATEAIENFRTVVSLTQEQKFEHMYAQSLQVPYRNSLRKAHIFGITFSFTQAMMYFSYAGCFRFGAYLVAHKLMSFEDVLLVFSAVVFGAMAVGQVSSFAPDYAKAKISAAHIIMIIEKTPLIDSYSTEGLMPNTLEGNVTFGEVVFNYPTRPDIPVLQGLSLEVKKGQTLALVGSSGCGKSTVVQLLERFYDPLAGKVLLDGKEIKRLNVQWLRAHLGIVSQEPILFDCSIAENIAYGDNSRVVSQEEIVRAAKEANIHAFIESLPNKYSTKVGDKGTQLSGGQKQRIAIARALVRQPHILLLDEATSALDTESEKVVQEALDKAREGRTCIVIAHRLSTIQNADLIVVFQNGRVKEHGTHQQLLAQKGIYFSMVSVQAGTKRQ
Sequence of NK1 receptor (P25103 whole entry, species assumed, canonical isoform): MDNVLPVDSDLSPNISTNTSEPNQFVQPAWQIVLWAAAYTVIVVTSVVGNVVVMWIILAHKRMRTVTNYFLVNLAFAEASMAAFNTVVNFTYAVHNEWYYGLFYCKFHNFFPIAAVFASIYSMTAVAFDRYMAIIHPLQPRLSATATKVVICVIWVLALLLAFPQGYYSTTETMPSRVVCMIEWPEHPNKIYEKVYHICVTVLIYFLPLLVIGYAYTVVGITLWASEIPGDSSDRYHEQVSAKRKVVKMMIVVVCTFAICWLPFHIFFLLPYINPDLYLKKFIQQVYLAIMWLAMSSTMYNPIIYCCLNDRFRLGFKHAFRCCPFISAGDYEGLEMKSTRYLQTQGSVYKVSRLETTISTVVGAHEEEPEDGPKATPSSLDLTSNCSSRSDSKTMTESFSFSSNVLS

Turning to `O=C1c2cccc3c2[C@H](CCC3)CN1[C@@H]1C[N+]2([O-])CCC1CC2` [M9, N‐oxide‐palonosetron], in series [1], the “fraction of administered palonosetron dose found in urine” value was “approximately 13%”. The “5-HT3 receptor antagonist activity relative to palonosetron” value in [2] is less than 1%.
With `O=C1c2cccc3c2[C@H](CCC3)CN1[C@@H]1CN2CCC1CC2` [palonosetron], the Tmax was 4.19 h in series [3]; 4.68 h in [4] (human, plasma, po); 3.76 h in series [5] (human, plasma, oral); 3.01 to 5.33 h in series [8]; 4.34 (19.6) h in series [15] (fasted); 4.96 (24.3) h in series [15] (fed). The Tmax in series [16] (mean (CV%)) is 3.01 (66.4) h; in [25], 3.76 to 4.96 h. In addition, the Vd/F in series [3] was 658 L; in series [4] (human, plasma, po) it was 586 L; in series [5] (human, plasma, oral), 575 L; in series [7], 633 to 679 L; in series [8] it was 483 to 679 L; in series [25], 575 to 962 L. For the same compound, the half-life in [3] was 2530 min; in series [4] (human, plasma, po), 2650 min; in series [5] (human, plasma, oral) it was 2230 min; in [25] it was 2210 to 2900 min. The CL/F in series [4] (Study 5, healthy volunteers (47), single oral NEPA FDC, mean (CV%)) is 9.6 (28.3) L/h; the CL/F in series [5] (Study 9, healthy volunteers (82), NEPA FDC commercial product, mean (CV%)) is listed as 11.1 (27.6) L/h; the CL/F (Healthy volunteers, Min-Max of study means, single oral NEPA) was in the range of 9.6 to 17.9 L/h; the CL/F in series [15] (fasted) is reported as 17.9 (34.1) L/h; the CL/F in [15] (fed) is given as 17.8 (28.0) L/h; the CL/F in [16] (value (%RSE)) is listed as 7.6 (%RSE = 3.64) L/h. The AUC(0-inf) was 56.7 ng·h/mL in [4] (human, plasma, po); 48.2 ng·h/mL in series [5] (human, plasma, oral); 48.1 to 85.6 ng·h/mL in series [8]; 33.2 to 56.7 ng·h/mL in [25]. Further, the Cmax in [4] (human, plasma, po) is 1.53 ng/mL; in series [5] (human, plasma, oral), 1.27 ng/mL; in series [8], 0.85 to 1.38 ng/mL; in series [15] (fasted), 0.786 (28.4) ng/mL; in series [15] (fed), 0.768 (20.7) ng/mL; in [16] (mean (CV%)) it was 1.378 (28.3) ng/mL. Moreover, in series [25], the Cmax is 0.768 to 1.53 ng/mL. In addition, the absorption lag time in [6] was 0.79 h. Further, the absorption rate constant in [6] worked out at 2.66 h⁻¹. Besides, the Papp A→B at 0.5 μM in series [9] was 16 ×10⁻⁶ cm/s. For the same compound, in series [9], the Papp A→B at 50 μM amounted to 65 ×10⁻⁶ cm/s. Moreover, the “Biopharmaceutics Classification System class” value in series [10] was 1. Moreover, the fraction unbound in series [11] was 0.38. For the same compound, the “binding to plasma proteins” value in series [12] is reported as 62%. In addition, the bioavailability in [13] is approximately 100%. Moreover, the “fraction from previous NEPA administration eliminated at next dose” value in [14] (chemotherapy every 2 weeks) is reported as “more than 99%”; in series [14] (chemotherapy every 3 weeks), 100%. The “plasma concentration as fraction of mean Cmax” value (at 3 hours after oral NEPA) is reported as “approximately 80%”. The AUCinf was 33.645 (26.7) ng ⋅ h/mL in series [15] (fasted), 33.199 (20.9) ng ⋅ h/mL in series [15] (fed) and 68.611 (33.4) ng ⋅ h/mL in [16] (mean (CV%)). Moreover, the Vz/F is reported as 905 (20.7) L in series [15] (fasted) and 962 (24.5) L in series [15] (fed). The t1/2 in series [15] (fasted) is 36.9 (23.6) h; in series [15] (fed), 38.9 (29.1) h; in series [21] (cancer patients, intravenous single dose) it was 49.8 h; in [21] (healthy subjects, intravenous single dose), 37.4 h. For the same compound, in [15] (open, randomized, 2-way crossover study in healthy volunteers), the “AUCinf and Cmax under fed (high-fat breakfast) vs fasting conditions” value is “similar”. The “PK interaction between netupitant and palonosetron” value in series [17] was “no relevant PK interactions”. The “fraction of administered palonosetron dose found in urine” value in series [1] was “approximately 40%”. The solubility in water result in [18] was “freely soluble”. In addition, in [19], the “octanol-water partition coefficient (logP)” value is reported as 2.72. The “substrate of P-gp (MDR1/P-gp) efflux transporter” value in [20] is on record as “P‐gp substrate”. In addition, the “inhibitor of P-gp efflux transporter” value in [20] (parent drugs) is recorded as “not an inhibitor; also recorded: not a P‐gp inhibitor”. Moreover, the “combined effect on inhibition of substance P-mediated response” value in series [22] is reported as “synergistic effects”. The “combined effect on triggering NK1 receptor internalization” value in series [23] is on record as “additive effects”. In [24], the “CYP isoforms mediating metabolism” value is “primarily metabolized by CYP2D6 and to a lesser extent by CYP3A4 and CYP1A2”. In addition, in [26], the CL renal came out at 89.8 mL/min. In addition, the “effect of coadministration of metoclopramide or aprepitant on pharmacokinetics” value in series [27] is on record as “did not alter”.
For the compound `C[C@@H](O[C@H]1OCCN(Cc2nc(O)n(P(=O)(O)O)n2)[C@H]1c1ccc(F)cc1)c1cc(C(F)(F)F)cc(C(F)(F)F)c1` [fosaprepitant], the “adverse reactions on intravenous administration” value in [28] was “injection‐site reactions”.
For `O=C1c2cccc3c2[C@H](CC[C@@H]3O)CN1[C@@H]1CN2CCC1CC2` [6‐S‐hydroxy‐palonosetron], the “5-HT3 receptor antagonist activity relative to palonosetron” value in series [2] is listed as less than 1%.
As to `C[C@@H](OC[C@@]1(c2ccccc2)CC[C@]2(CCC(=O)N2)CN1)c1cc(C(F)(F)F)cc(C(F)(F)F)c1` [rolapitant], in series [21], the t1/2 entry is recorded as “approximately 180 hours”. Moreover, the “adverse reactions on intravenous administration” value in series [28] is listed as “injection‐site reactions”.

The term Vd/F denotes the volume of distribution divided by bioavailability. As usually defined, the half-life is how long it takes for the measured level to halve. Broadly, the AUC(0-inf) is total exposure, with the tail of the curve extrapolated. In general, Papp A→B refers to the apparent permeability from the apical to the basolateral side of a cell layer. As usually defined, the fraction unbound is the share of the substance not bound to proteins or other matrix. As usually defined, the bioavailability is dose-corrected exposure relative to a reference, in per cent.
